How the values were obtained:
[1] = system: atherosclerosis model induced by high-fat diet in ApoE knockout mice; test: Ratio of atherosclerotic plaque area to total inner wall area of the aorta (En-Face, oil red; Example 2); type: in vivo; settings: for Mean of Plaque Ratio (plaque area to total inner wall area of aorta): high-fat diet; for symptoms of atherosclerosis under therapeutic intervention (mainly plaque area ratio): different doses, Example 2
Source text: (§1) Methods: A total of 130 SPF grade C57BL/6 ApoE −/− model male mice aged 8 weeks were purchased from Charles River Laboratories (Beijing, China) (animal license number: SCXK (Beijing) 2016-0001, animal qualification certificate No.: 11400700331337). After one week of acclimatization in a SPF-grade animal facility, the animals with less weights were discarded and the rest was randomly divided into 11 groups, with 8 animals in each group. Except for the healthy control group, the rest were fed with 10% high-fat food (the first day of the high-fat diet was recorded as D1). Starting from the 8th week of the high-fat diet, each group of animals was orally given solvents or corresponding drugs, and the volume of administration was 10 ml/kg, once a day for 8 weeks. Animals were observed and administered by gavage once a day and the body weight were measured once a week for 56 days. […] The store solution of the test samples was dissolved in dimethyl sulfoxide solution and prepared with 30% PEG300.
Immediately after blood was taken from the heart, it was perfused through the left ventricle with 20 ml of normal saline. After bloodletting, the heart and aorta (from the aortic arch to the iliac artery) were isolated. The isolated artery was cut longitudinally from the aortic arch to the iliac artery, fixed in 4% paraformaldehyde for 30 minutes, synchronized with 60% isopropanol for 10 minutes, stained in 60% oil red for 30 minutes, and washed by 60% isopropanol 3 times, 5 minutes each time. Finally, the colored aorta was washed with deionized water and photographed. The proportion of the red plaque area was measured by Image Pro Plus 6.0 (Media Cybernetics, MD, US). The heart samples were fixed in 4% paraformaldehyde solution overnight and then placed in sucrose solution for dehydration. Then, it was embedded with OCT (Sakura, Japan) under a stereo microscope and made into 7 μm frozen sections. After HE staining, the slices were used for routine pathological examination. The outflow tract images were collected under an optical microscope at 4* magnification, and 4*, 10*, 20* and 40* magnification eyepieces were used for high-quality morphological observation. The detection standard referred to the histological classification standard of human atherosclerosis disease.
Evaluate the effect of different therapeutic drugs by the ratio of the area of atherosclerotic plaque to the total area of the inner wall of the aortic vessel (En-Face)
We adopted the widely accepted standard for the severity of arteriosclerosis in animal models, and analyzed the area of all plaques on the inner wall of the aorta. […] FIGS. 46A and 46B are histograms of the ratios of plaque area on the inner wall of the aorta in each treatment group. The values in FIGS. 46A and 46B are the ratios of plaques to the total area of the inner wall in each group, and the error is standard error±SEM. The statistical significance analysis is as follows: ***P<0.001 compared with the normal control group; #P<0.05 compared with the vehicle group; ##P<0.01, ###P<0.001, compared with the vehicle group through one-way ANOVA Dunnett's test; & represents P<0.05, compared with the vehicle group by t test.

[2] = system: ApoE knockout mice; test: Blood lipid metabolism TG, TCHO, HDL-c, LDL-c (Example 2); type: in vivo
Source text: as §1
At the end of the experiment, the animals were euthanized by inhalation of carbon dioxide. Blood was taken from the heart, and centrifuged at 3000 r/min at a low temperature centrifuge for 10 min to separate the serum. The levels of total cholesterol TC, triglyceride TG, high-density lipoprotein HDL-C, and low-density lipoprotein LDL-C were measured, and the remaining serum was stored in a refrigerator at −80° C.
Before the start of the experiment, animal blood samples were analyzed for blood lipid metabolism, including conventional triglyceride (TG), total cholesterol (TCHO), high-density lipoprotein (HDL-c) and low-density lipoprotein (LDL-c). After high-fat or ordinary food feeding for 8 weeks, the blood lipid levels were measured again. After the drug treatment was started, blood lipid measurements were performed every four weeks until the end of the experiment.

Row | SMILES | Mean of Plaque Ratio (plaque area to total inner wall area of aorta) ([1]; 5 mpk PO QD 8 weeks) | Mean of Plaque Ratio (plaque area to total inner wall area of aorta) ([1]; 10 mpk PO QD 8 weeks) | symptoms of atherosclerosis under therapeutic intervention (mainly plaque area ratio) [1] | effect on high-density lipoprotein (HDL-c) level compared with the vehicle group [2] | effect on low-density lipoprotein (LDL-c) level compared with the vehicle group [2] | effect on total cholesterol (TCHO) level compared with the vehicle group [2] | effect on triglyceride (TG) level compared with the vehicle group [2]
1 | O=C(Cc1ccc(C(F)(F)F)cc1)N1CCC(n2c(=O)[nH]c3ccccc32)CC1 [Sample X8, 1-(1-(2-(4-(trifluoromethyl)phenyl)acetyl)piperidin-4-yl)-1H-benzo[d]imidazole-2(3H)-one] | 9.02% | 6.93% | significantly alleviate the symptoms of atherosclerosis | no obvious effect | significantly reduce | significantly reduce | significantly reduce
2 | Cc1ccc(CC(=O)N2CCC(n3c(=O)[nH]c4ccccc43)CC2)cc1 [Sample X7, 1-(1-(2-(p-tolyl)acetyl)piperidin-4-yl)-1H-benzo[d]imidazole-2(3H)-one] | 9.00% | – | significantly alleviate the symptoms of atherosclerosis | no obvious effect | significantly reduce | significantly reduce | significantly reduce
